Data as given in US20050090505A1, “Methods of reducing risk of infection from pathogens” (priority 2003, published 2005).
Structures can show the parent of a compound that is named as a salt. Where two headings read alike, the source gives them in different places.

Molecular target: T1, airway epithelial sodium currents (sodium channel) (UniProt A0A8I3MKE6+A0A8I3Q679+Q95165)
T1 sequence (A0A8I3MKE6 1-646): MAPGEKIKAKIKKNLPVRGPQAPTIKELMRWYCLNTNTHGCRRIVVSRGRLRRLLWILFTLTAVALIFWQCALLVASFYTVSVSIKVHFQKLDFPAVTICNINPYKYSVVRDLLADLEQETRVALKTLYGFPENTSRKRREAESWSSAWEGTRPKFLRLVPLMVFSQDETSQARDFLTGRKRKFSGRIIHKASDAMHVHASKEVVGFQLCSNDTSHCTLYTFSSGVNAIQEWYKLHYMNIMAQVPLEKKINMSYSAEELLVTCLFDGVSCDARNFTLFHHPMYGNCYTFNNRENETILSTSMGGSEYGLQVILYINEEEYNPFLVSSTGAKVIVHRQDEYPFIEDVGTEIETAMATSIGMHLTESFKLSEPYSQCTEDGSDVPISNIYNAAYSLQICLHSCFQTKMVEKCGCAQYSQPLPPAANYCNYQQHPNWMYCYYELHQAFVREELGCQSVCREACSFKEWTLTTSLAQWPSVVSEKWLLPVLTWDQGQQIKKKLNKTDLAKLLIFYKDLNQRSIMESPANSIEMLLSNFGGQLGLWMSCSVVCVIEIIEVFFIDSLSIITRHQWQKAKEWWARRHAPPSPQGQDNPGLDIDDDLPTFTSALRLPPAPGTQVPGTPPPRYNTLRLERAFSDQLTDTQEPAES
T1 sequence (A0A8I3Q679 1-649): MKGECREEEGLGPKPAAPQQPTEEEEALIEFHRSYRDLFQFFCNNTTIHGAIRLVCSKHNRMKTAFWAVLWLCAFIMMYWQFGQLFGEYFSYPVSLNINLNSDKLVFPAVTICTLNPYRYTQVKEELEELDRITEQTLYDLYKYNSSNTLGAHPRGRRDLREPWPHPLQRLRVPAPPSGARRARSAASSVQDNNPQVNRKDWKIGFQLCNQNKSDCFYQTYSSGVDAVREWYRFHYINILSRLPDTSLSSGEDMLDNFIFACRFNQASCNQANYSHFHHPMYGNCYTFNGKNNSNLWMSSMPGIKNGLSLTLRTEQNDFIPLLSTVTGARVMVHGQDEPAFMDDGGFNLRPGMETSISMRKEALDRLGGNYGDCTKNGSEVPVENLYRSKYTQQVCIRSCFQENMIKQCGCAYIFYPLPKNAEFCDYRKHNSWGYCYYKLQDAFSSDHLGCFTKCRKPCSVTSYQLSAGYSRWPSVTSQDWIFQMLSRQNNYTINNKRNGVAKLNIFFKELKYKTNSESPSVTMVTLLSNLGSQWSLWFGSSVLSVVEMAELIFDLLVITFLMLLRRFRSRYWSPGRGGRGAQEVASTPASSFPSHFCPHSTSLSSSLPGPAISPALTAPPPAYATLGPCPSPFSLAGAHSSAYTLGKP
T1 sequence (Q95165 1-641): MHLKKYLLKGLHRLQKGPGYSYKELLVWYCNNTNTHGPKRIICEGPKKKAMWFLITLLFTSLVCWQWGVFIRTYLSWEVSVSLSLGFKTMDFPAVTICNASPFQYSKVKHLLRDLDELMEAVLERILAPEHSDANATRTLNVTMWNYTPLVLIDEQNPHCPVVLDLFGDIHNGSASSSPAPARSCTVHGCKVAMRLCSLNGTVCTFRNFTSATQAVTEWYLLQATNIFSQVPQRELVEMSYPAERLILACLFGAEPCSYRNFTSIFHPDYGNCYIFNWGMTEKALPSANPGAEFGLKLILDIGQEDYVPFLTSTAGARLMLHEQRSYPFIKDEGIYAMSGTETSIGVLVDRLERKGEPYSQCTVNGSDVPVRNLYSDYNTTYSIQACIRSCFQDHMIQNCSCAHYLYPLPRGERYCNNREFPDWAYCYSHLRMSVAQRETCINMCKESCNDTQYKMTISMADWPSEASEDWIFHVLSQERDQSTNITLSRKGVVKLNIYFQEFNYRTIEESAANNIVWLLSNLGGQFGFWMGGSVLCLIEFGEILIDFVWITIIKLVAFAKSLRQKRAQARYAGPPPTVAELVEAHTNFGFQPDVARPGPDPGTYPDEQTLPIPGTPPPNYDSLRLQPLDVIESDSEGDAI
Assay: Sodium channel blocking activity: inhibition of short circuit current (ISC) in airway epithelial monolayers mounted in Ussing chambers
Type: cell-based, human, dog, sheep or rodent
Details: for Fold Amiloride** (PSA 4022 = 100): relative potency for PSA 4022 = 100 using EC50 from PSA 4022 in same run; for EC50: mean ± spread
Experimental: In Vitro Measure of Sodium Channel Blocking Activity and Reversibility
One assay used to assess mechanism of action and/or potency of the compounds of the present invention involves the determination of lumenal drug inhibition of airway epithelial sodium currents measured under short circuit current (ISC) using airway epithelial monolayers mounted in Ussing chambers. Cells obtained from freshly excised human, dog, sheep or rodent airways are seeded onto porous 0.4 micron Snapwell™ Inserts (CoStar), cultured at air-liquid interface (ALI) conditions in hormonally defined media, and assayed for sodium transport activity (ISC) while bathed in Krebs Bicarbonate Ringer (KBR) in Using chambers. All test drug additions are to the lumenal bath with half-log dose addition protocols (from 1×10^−11 M to 3×10^−5 M), and the cumulative change in ISC (inhibition) recorded. All drugs are prepared in dimethyl sulfoxide as stock solutions at a concentration of 1×10^−2 M and stored at −20° C. Eight preparations are typically run in parallel; two preparations per run incorporate amiloride and/or benzamil as positive controls. After the maximal concentration (5×10^−5 M) is administered, the lumenal bath is exchanged three times with fresh drug-free KBR solution, and the resultant ISC measured after each wash for approximately 5 minutes in duration. Reversibility is defined as the percent return to the baseline value for sodium current after the third wash. All data from the voltage clamps are collected via a computer interface and analyzed off-line.
Dose-effect relationships for all compounds are considered and analyzed by the Prism 3.0 program. IC50 values, maximal effective concentrations, and reversibility are calculated and compared to amiloride and benzamil as positive controls.

[1] = Selected Alaphatic Pyrazinoylguanidines (Formula II)
[2] = Selected Cyclic Pyrazinoylguanidines (Formula III)
[3] = Selected Cyclic Pyrazinoylguanidines (Formula III), read-out: EC50

Row | Structure (SMILES) | Fold Amiloride** (PSA 4022 = 100) (Alaphatic Pyrazinoylguanidines) | EC50 [1] | other results
1 | N=C(NCCCCc1ccc(C[C@@H](N)CC(=O)O)cc1)NC(=O)c1nc(Cl)c(N)nc1N [compound 24407] |  |  | Fold Amiloride** (PSA 4022 = 100) (Capped Pyrazinoylguanidines): 23 ± 4
2 | N=C(NCCCCCCCCCCCCN)NC(=O)c1nc(Cl)c(N)nc1N [compound 23609, N-(12-aminododecyl)-N′-(3,5-diamino-6-chloropyrazine-2-carbonyl)-guanidine dihydrochloride] | 66 ± 36 | 13 ± 7 nM | 
3 | N=C(N)NCCCCCCCCCCNC(=N)NC(=O)c1nc(Cl)c(N)nc1N [compound 23608, N-{10-[N′-(3,5-diamino-6-chloropyrazine-2-carbonyl)guanidino]-decyl}guanidine dihydrochloride] | 41 ± 29 | 17 ± 8 nM | 
4 | N=C(NCCCCC1CCN(CCCO)CC1)NC(=O)c1nc(Cl)c(N)nc1N [compound 25310, N-(3,5-Diamino-6-chloropyrazine-2-carbonyl)-N′-{4-[1-(3-hydroxypropyl)piperidin-4-yl]butyl}guanidine dihydrochloride] |  |  | Fold Amiloride** (PSA 4022 = 100) (Cyclic Pyrazinoylguanidines): 5 ± 2; EC50 [2]: 169 ± 47 nM
5 | N=C(N)NCCCCCCCCCCCCNC(=N)NC(=O)c1nc(Cl)c(N)nc1N [compound 23683, N-{12-[N′-(3,5-diamino-6-chloropyrazine-2-carbonyl)guanidino]dodecyl)guanidine dihydrochloride] | 68 ± 48 | 41 ± 68 nM | 
6 | N=C(NCCCCc1ccc(OCC(=O)NCC(N)=O)cc1)NC(=O)c1nc(Cl)c(N)nc1N [compound 16314, N-carbamoylmethyl-2-(4-{4-[N′-(3,5-diamino-6-chloropyrazine-2-carbonyl)guanidino]butyl}phenoxy)acetamide] |  |  | Fold Amiloride** (PSA 4022 = 100) (Capped Pyrazinoylguanidines): 41 ± 6
7 | N=C(NCCCCCCCCCCN)NC(=O)c1nc(Cl)c(N)nc1N [compound 19487, N-(10-aminodecyl)-N′-(3,5-diamino-6-chloropyrazine-2-carbonyl)-guanidine dihydrochloride] | 37 ± 1 | 25 ± 11 nM | 
8 | N=C(N)NCCCCCCCCCNC(=N)NC(=O)c1nc(Cl)c(N)nc1N [compound 19006, N-{9-[N′-(3,5-diamino-6-chloropyrazine-2-carbonyl)guanidino]nonyl}guanidine dihydrochloride] | 11 ± 2 | 60 ± 15 nM | 
9 | Cl.Cl.Cl.N=C(NCCCCC1CCN(CCN)CC1)NC(=O)c1nc(Cl)c(N)nc1N [compound 25455, N-{4-[1-(2-Aminoethyl)piperidin-4-yl]butyl}-N′-(3,5-diamino-6-chloropyrazine-2-carbonyl)guanidine trihydrochloride] |  |  | Fold Amiloride** (PSA 4022 = 100) (Cyclic Pyrazinoylguanidines): 5 ± 1; EC50 [3]: 104 ± 32 nM
10 | N=C(NCCCCCCN)NC(=O)c1nc(Cl)c(N)nc1N [compound 18706, N-(6-aminohexyl)-N′-(3,5-diamino-6-chloropyrazine-2-carbonyl)guanidine dihydrochloride] | 4 ± 1 | 254 ± 118 nM | 
11 | CN(C)C(=O)COc1ccc(CCCCNC(=N)NC(=O)c2nc(Cl)c(N)nc2N)cc1 [compound 16313, 2-(4-{4-[N-(3,5-diamino-6-chloropyrazine-2-carbonyl)guanidino]-butyl}phenoxy)-N,N-dimethylacetamide hydrochloride] |  |  | Fold Amiloride** (PSA 4022 = 100) (Capped Pyrazinoylguanidines): 41 ± 7
12 | N=C(NCCCCCCCCCN)NC(=O)c1nc(Cl)c(N)nc1N [compound 19335, N-(9-aminononyl)-N′-(3,5-diamino-6-chloropyrazine-2-carbonyl)-guanidine dihydrochloride] | 19 ± 7 |  | 
13 | N=C(N)NCCCCCCCCCCCNC(=N)NC(=O)c1nc(Cl)c(N)nc1N [compound 23991, N-{11-[N′-(3,5-diamino-6-chloropyrazine-2-carbonyl)guanidino]-undecyl}guanidine dihydrochloride] | 20 ± 12 | 64 ± 77 nM | 
14 | CC(C)(C)OC(=O)N=C(NCCCN1CCC(CCCCNC(=N)NC(=O)c2nc(Cl)c(N)nc2N)CC1)NC(=O)OC(C)(C)C [compound 25569, N-(3,5-Diamino-6-chloropyrazine-2-carbonyl)-N′-{4-[1-(3-[N″,N′″-bis-tert-butoxycarbonyl]guanidinopropyl)piperidin-4-yl]butyl}guanidine] |  |  | Fold Amiloride** (PSA 4022 = 100) (Cyclic Pyrazinoylguanidines): 41 ± 9; EC50 [3]: 16 ± 3 nM
15 | N=C(N)NCCCCCCCNC(=N)NC(=O)c1nc(Cl)c(N)nc1N [compound 19155, N-{7-[N′-(3,5-diamino-6-chloropyrazine-2-carbonyl)guanidino]heptyl}guanidine dihydrochloride] | 8 ± 7 | 81 ± 45 nM | 
16 | CC(C)(C)OC(=O)NCCCN1CCC(CCCCNC(N)=NC(=O)c2nc(Cl)c(N)nc2N)CC1 [compound 25452, [3-(4-{4-[N′-(3,5-diamino-6-chloropyrazine-2-carbonyl)guanidino]butyl}piperidin-1-yl)propyl]carbamic acid tert-butyl ester] |  |  | Fold Amiloride** (PSA 4022 = 100) (Cyclic Pyrazinoylguanidines): 8 ± 1; EC50 [3]: 60 ± 6 nM
17 | N=C(NCCCCCCCCCCCN)NC(=O)c1nc(Cl)c(N)nc1N [compound 23682, N-(11-aminoundecyl)-N′-(3,5-diamino-6-chloropyrazine-2-carbonyl)guanidine dihydrochloride] | 51 ± 15 | 12 ± 3 nM | 
18 | N=C(NCCCCC1CCN(CCCN)CC1)NC(=O)c1nc(Cl)c(N)nc1N [compound 25510, N-{4-[1-(3-Aminopropyl)piperidin-4-yl]butyl}-N′-(3,5-diamino-6-chloropyrazine-2-carbonyl)guanidine trihydrochloride] |  |  | Fold Amiloride** (PSA 4022 = 100) (Cyclic Pyrazinoylguanidines): 3 ± 9; EC50 [2]: 61 ± 23 nM
19 | N=C(N)NCCCCCCCCNC(=N)NC(=O)c1nc(Cl)c(N)nc1N [compound 19604, N-{8-[N′-(3,5-diamino-6-chloropyrazine-2-carbonyl)guanidino]octyl}-guanidine dihydrochloride] | 63 ± 61 | 25 ± 27 nM | 
